{"source": "patent US8841274B2", "about": "“Protein arginine N-methyltransferase-5 method of cancer treatment” (priority 2009, dated 2014)", "assay_type_in_all_cases": "cell-based", "key": {"[1]": {"system": "p73-luciferase or cyclinE-luciferase", "assay": "Reporter assay with E2F-responsive promoters", "conditions": "U2OS cells, PRMT5 vs control siRNA, 48 h", "procedure": "To further explore the role of arginine methylation in the transcription properties of E2F-1, wild-type E2F-1 was compared with the KK and KKK mutants in a reporter-based transfection assay, using E2F-responsive promoters derived from E2F target genes. The assay was performed under conditions in which each mutant protein was expressed at an equivalent level to wild-type E2F-1 (FIG. 4aii and bii), thus ruling out any difference in activity that could be attributed to protein levels. […] FIGS. 4a and b show the transcription properties of wild-type E2F-1, KK and KKK mutants. U2OS cells were transfected with expression vectors encoding WT or mutant E2F-1 protein, together with p73-luciferase (A) or cyclinE-luciferase (B) for 48 h as indicated, and pCMV-βgal to monitor transfection efficiency. Relative luciferase activity (luciferase/βgal) is shown together with expression level of ectopic proteins; n=3. […] PRMT5 (P) or control (C) non-targeting siRNA was transfected into U2OS cells together with p73-luciferase (i) or cyclinE-luciferase (ii) for 48 h, together with pCMV-βgal to monitor transfection efficiency. Relative luciferase activity is shown together with expression level of the ectopic proteins.\nCells were transfected with expression vectors (1 μg) encoding WT or the mutant E2F-1 proteins as indicated with E2F responsive luciferase reporters, namely p73-luciferase or cyclinE-luciferase, together with pCMV-βgal to monitor transfection efficiency. Cells were harvested, lysed 48 h post-transfection and luciferase activity measured as previously described (Janson et al 2008)."}, "[2]": {"system": "U2OS cells", "assay": "Apoptosis (sub-G1) by FACS in U2OS cells", "conditions": "n=3", "procedure": "Whether arginine methylation influences E2F-1-dependent apoptosis was investigated by comparing the ability of wild-type E2F-1 to the KK and KKK mutants to induce cells with a sub-G1 DNA content (Stevens et al 2003). […] U2OS cells were transfected with expression vectors encoding wild-type E2F-1, KK and KKK as indicated for 48 h and analysed by FACS as described. The graph represents the relative change in sub-G1 populations compared to the empty vector control treatment; n=2.\n(§1) The graph (i) represents the relative number of sub-G I cells (compared to the control treatment) in the indicated conditions; and (ii) the level of PRMT5 and E2F-1; n=3.\n(§2) PRMT5 (P) or control (C) non-targeting siRNA (25 nM) was transfected into HCT116 p53+/+ (i), HCT116 p53−/− (ii) or U2OS (iii) cells and the cells were harvested 72 h post-transfection and analysed by FACS. The graph represents the actual number of sub-G1 cells in the indicated conditions, and the immunoblot the level of PRMT5 and actin control; n=3.\nPRMT5 (P), E2F-1 (E) or control (C) non-targeting siRNA was transfected into U2OS cells and harvested 72 h post-transfection and analysed by FACS as described.\n(§3) Cells were transfected with the indicated expression vectors together with pBB14-GFP (for 48 h) to monitor transfection efficiency or siRNA (for 48 h or 72 h) with or without treatment of the DNA damage agent for the last 16 h. Then, cells were fixed and stained with propidium iodide and analyzed by Flow Cytometry."}, "[3]": {"system": "C33A cells", "assay": "Apoptosis upon PRMT5 depletion in C33A cells", "conditions": "PRMT5 vs control siRNA", "procedure": "as §1\nCleaved PARP is indicated by the arrow.\nas §3"}, "[4]": {"system": "HCT116 p53+/+", "assay": "Apoptosis (sub-G1) by FACS in HCT116 p53+/+ cells", "conditions": "siRNA 25 nM, 72 h, n=3", "procedure": "as §2, §3"}, "[5]": {"system": "HCT116 p53−/−", "assay": "Apoptosis (sub-G1) by FACS in HCT116 p53−/− cells", "conditions": "siRNA 25 nM, 72 h, n=3", "procedure": "as §2, §3"}, "[6]": {"system": "SAOS2", "assay": "Apoptosis (sub-G1) by FACS in SAOS2 cells with ectopic E2F-1", "conditions": "SAOS2 with wild-type E2F-1 expression vector 1 μg, 72 h; n=3", "procedure": "PRMT5 (P) or control (C) non-targeting siRNA was transfected into SAOS2 together with an expression vector encoding wild-type E2F-1 (1 μg) as indicated, harvested at 72 h and processed as described in (a); n=3. […] This is consistent with the idea that PRMT5 mediates its effects through E2F-1.\nas §3"}, "[7]": {"system": "MEFs", "assay": "Apoptosis by FACS in MEFs", "conditions": "MEFs (normal non-cancer cells), 72 h; n=3", "procedure": "PRMT5 (P) or control (C) non-targeting siRNA was transfected into MEFs and cells harvested at 72 h post-transfection as indicated. Cell extracts were immunoblotted with anti-PRMT5 and anti-E2F-1. Actin levels served as the loading control.\nMEFs were treated as described in 6c and thereafter analysed by FACS. In FIG. 6d the black bar represents the effect of C siRNA, and clear bar the effect of P siRNA; n=3.\nas §3"}, "[8]": {"system": "PRMT5", "assay": "PRMT5 depletion by siRNA in U2OS cells, E2F-1 and E2F target gene levels", "description": "The depletion of PRMT5 co-incided with increased levels of E2F-1 protein (FIG. 3c), which is compatible with the increased level and stability of the KK and KKK mutants (FIG. 3b). […] Extracts were immunoblotted with anti-PRMT5 and E2F-1, and GAPDH levels served as a loading control.\nFurther, E2F-1 RNA was higher under conditions of PRMT5 depletion, contrasting with the control siRNA treatment. […] RNA was extracted from cells treated as described above, and RNA levels of E2F-1 examined. RNA levels of 18S and GAPDH served as controls. […] Extracts were immunoblotted with anti-PRMT5, E2F-1, p73, Chk2, Chk1 and Cdc2 as indicated. Levels of GAPDH served as the loading control.\nFIGS. 6f and 6g address the role of one of the key E2F target genes in the PRMT5 dependent apoptosis, i.e. p73. […] PRMT5 (P) or control (C) siRNA was transfected into U2OS cells and cells harvested at 72 h post-transfection. Both RNA (i) and protein (ii) levels were measured, as indicated, for p73, 18S and GAPDH (i) and PRMT5, E2F-1, p73 and GAPDH (ii). […] This experiment supports activation of the E2F1 pathway leading to apoptosis upon PRMT5 knockdown, i.e. PRMT5 normally acts to suppress activation of the pathway.\nOligofectamine transfection reagent (Invitrogen) was used to transfect cells with siRNAs for 72 h. siRNA treatment of cells was carried out using siRNA non-targeting (Dharmacon) as control or PRMT5 (5′ […] (SEQ ID NO:1)). p73 smart pool siRNA was from Dharmacon. siRNA treatment was for 72 h at 50 nM."}, "[9]": {"molecular_target": "PRMT5 (Homo sapiens, UniProt O14744)", "sequence (O14744 whole entry)": "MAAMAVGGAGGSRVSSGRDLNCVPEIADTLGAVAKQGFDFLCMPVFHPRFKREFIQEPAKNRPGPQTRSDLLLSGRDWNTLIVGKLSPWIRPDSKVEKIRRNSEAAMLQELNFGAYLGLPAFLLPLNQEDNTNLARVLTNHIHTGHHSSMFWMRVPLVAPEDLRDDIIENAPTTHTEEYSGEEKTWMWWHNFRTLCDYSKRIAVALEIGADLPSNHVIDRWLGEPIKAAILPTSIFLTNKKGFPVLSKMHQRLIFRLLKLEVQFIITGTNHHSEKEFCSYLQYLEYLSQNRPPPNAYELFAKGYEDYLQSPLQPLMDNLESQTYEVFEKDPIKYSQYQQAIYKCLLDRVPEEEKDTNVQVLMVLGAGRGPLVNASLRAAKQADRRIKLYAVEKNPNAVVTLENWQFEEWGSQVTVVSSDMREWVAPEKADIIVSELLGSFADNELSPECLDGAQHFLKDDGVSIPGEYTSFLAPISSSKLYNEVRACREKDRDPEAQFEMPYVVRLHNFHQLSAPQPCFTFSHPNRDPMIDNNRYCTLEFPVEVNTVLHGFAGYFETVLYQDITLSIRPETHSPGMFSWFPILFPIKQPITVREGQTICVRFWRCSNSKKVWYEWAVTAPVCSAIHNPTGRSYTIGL", "assay": "Ubiquitination assay in U2OS cells after siRNA", "parameters": "The indicated GST proteins were incubated with U2OS cell lysate; endogenous in cells; host or cells: U2OS", "conditions": "PRMT5 vs control siRNA, MG132 20 nM 4 h", "procedure": "U2OS cells were transfected with PRMT5 (P) or control (C) siRNA. After 24 h, cells were transfected with expression vectors encoding wild-type (WT) E2F-1 or the KKK mutant (2 μg) and His 6-ubiquitin (4 μg) as indicated. Cells were treated with MG132 ([…]) for 4 h before being collected. Cell lysates and Ni2+ pull-down eluates were analysed as described. Quantitation of ubiquitin signals was performed using ImageJ 1.43u, and the input protein levels are shown underneath.\nCells were transfected with pcDNA3.1a-ubiquitin (His-tagged) and treated as described. Briefly cells were harvested into 8 M urea, 0.1 M Na2HPO4/NaH2PO4, 0.01 M Tris-HCl, and pH 8.0. Cell lysate was incubated with nickel (Ni^2+-NTA)-agarose beads (Qiagen), 5 mM imidazole and 10 mM β-mercapthoethanol overnight at 4° C. The beads were collected and washed as described (Liu and Warbrick, 2006). Bound proteins were then eluted and assayed by immunoblotting."}}}
{"substance": "5′ CCGCUAUUGCACCUUGGAA (SEQ ID NO:1) [PRMT5 siRNA]", "values": [{"measurement": "activity of E2F-1 responsive promoters", "setting": "[1]", "value": "more active"}, {"measurement": "apoptosis (sub-G1 cells)", "setting": "[2]; U2OS cells, 72 h post-transfection, with or without etoposide 10 μM 16 h", "value": "increased level of apoptosis"}, {"measurement": "apoptosis (% sub-G1 cells)", "setting": "[2]; U2OS, siRNA 25 nM, 72 h", "value": "induces apoptosis"}, {"measurement": "apoptosis", "setting": "[3]", "value": "increased level of apoptosis"}, {"measurement": "apoptosis (% sub-G1 cells)", "setting": "[4]", "value": "induces apoptosis"}, {"measurement": "apoptosis (% sub-G1 cells)", "setting": "[5]", "value": "induces apoptosis"}, {"measurement": "apoptosis", "setting": "[6]", "value": "enhanced levels of apoptosis"}, {"measurement": "apoptosis", "setting": "[7]", "value": "no apoptosis"}, {"measurement": "E2F-1 protein levels", "setting": "[8]; 72 h, with or without etoposide 10 μM", "value": "increases E2F-1 protein levels"}, {"measurement": "protein levels of E2F target genes (p73, Chk1, Chk2, Cdc2)", "setting": "[8]; 72 h, with or without etoposide or doxorubicin", "value": "induced"}, {"measurement": "p73 RNA and protein levels", "setting": "[8]; 72 h post-transfection", "value": "upregulated"}, {"measurement": "E2F-1 RNA levels", "setting": "[8]; contrasting with control siRNA", "value": "higher"}, {"measurement": "E2F-1 ubiquitination", "setting": "[9]", "value": "affects the ubiquitination of E2F-1"}]}
